According to patent publication US6368552B1, “Water treating agent and water treating method” (Kurita Water Industries Ltd., priority 1999, dated 2002):

Tests used:
[1] = Autoclave test of transference of the chemical from liquid water phase to steam phase at 200° C. (gas chromatography); assay type: physicochemical; conditions: autoclave 200° C.; for Conc. of chemical in water / Conc. of chemical in steam: 200 mg/liter aqueous solution, pH 11.5 with sodium hydroxide; for Conc. of chemical in water: liquid phase sample; for Conc. of chemical in steam: steam phase sample
Protocol: Each 50 ml of samples were taken from the steam phase and from the liquid phase directly after the temperature had reached at 200° C., which were analyzed for the concentration of the chemical on a gas chromatography. The ratio of the concentration of chemical in the steam phase versus the concentration of chemical in the liquid phase was calculated.

[2] = Removal of dissolved oxygen by potassium erysorbate at 60° C., 10 minutes; conditions: 100 mg potassium erysorbate per liter, pH of test soln. as in row (6.5-10.5)
Protocol: In a constant temperature bath held at 60° C., one liter of deionized water of a pH of 6.5 was stirred for one hour so as to saturate it with atmospheric oxygen and the oxygen concentration was measured by a dissolved oxygen meter (MOCA 3600 of the firm Orbisphere Laboratories). 100 mg of potassium erysorbate were added to the water and the mixture was agitated sufficiently, before the solution was poured into a 200 ml incubation bottle to fill it completely therewith, whereupon a closure stopper was fitted into the bottle so as to exclude any rest of gas space therein and the bottle was returned to the constant temperature bath of 60° C. to subject the solution to reaction for 10 minutes. After 10 minutes, the bottle was taken out of the bath and the dissolved oxygen concentration therein was detected by the dissolved oxygen meter. The rate of removal of dissolved oxygen is calculated from the proportion of the dissolved oxygen concentration after the addition of potassium erysorbate versus the dissolved oxygen concentration before the addition of potassium erysorbate (Comparative Example 15).
Test solutions were prepared from each one liter of deionized water by adjusting the pH thereof at 7.5, 9.0 and 10.5, respectively, by adding sodium hydroxide thereto as alkali reagent. […]

SMILES	Conc. of chemical in water [1] [mg/L]	Conc. of chemical in steam [1] [mg/L]	Conc. ratio Cs/Cw (concentration in the steam phase/concentration in liquid water phase) ([1]; pH 11.5)	Rate of O2 remov. [2] [%]	Transference from the liquid water phase to the steam phase [1]	Converted into gluconic acid (with some decomposition into other compounds) ([1]; liquid water phase, pH 11.5)
C=CCc1ccc(O)c(OC)c1 [Example 4, Eugenol]	184	418	2.27			
CC=Cc1ccc(O)c(OC)c1 [Example 5, Isoeugenol]	186	453	2.44			
O=C1O[C@H]([C@H](O)CO)C([O-])=C1O.[K+] [compound 15, potassium erysorbate]				30.1		
O=C1O[C@H](CO)[C@@H](O)[C@H](O)[C@H]1O [compound 1, glucono-δ-lactone, reference compound]	<1	<1	<0.01		almost no transference	*2) Converted into 173 mg/l of gluconic acid with some decomposition into other compounds.
CCCCCC1CCC(=O)O1 (stereo not drawn) [Example 1, γ-nonalactone]	188	207	1.10			
CCCCCCC1CCC(=O)O1 (stereo not drawn) [Example 2, γ-decalactone]	187	120	0.64			
